From patent US12419875B2, “Use of Axitinib and analogs thereof in preparing blood-brain barrier permeability regulator” (ZHEJIANG UNIVERSITY, priority 2018, dated 2025)

What was measured:
bEnd.3 cells = test: Cell survival rate by tetrazolium blue colorimetry, bEnd.3 cells; assay type: cell-based; conditions: 10 μM (therapeutic dose), FIGS. 13 and 14
Description: FIG. 13: Evaluation of cell survival rate in a Transwell model. A Transwell model of co-incubation of brain microvascular endothelial cells bEnd.3 and glioma cells U87 MG simulates a pathological blood-brain barrier. Axitinib (10 μM) and an Axitinib analog of phosphatidylinositol kinase (PI3K) inhibitor LY294002 (10 μM) were added into the Transwell chamber. After 24 hours, the survival rate of bEnd.3 cells in the Transwell chamber (Panel A) and U87 MG cells in the Transwell outer chamber (Panel B) were detected by tetrazolium blue colorimetry (n=3).
FIG. 14: Evaluation of Cytotoxicity for Axitinib and an analog thereof. […] Cell survival rate was detected by tetrazolium blue colorimetry. […]
The physiological blood-brain barrier and the pathological blood-brain barrier as constructed in Method 1 and Method 2 in the Example 1 were used as models, respectively. […] Absorbance at 570 nm was measured with a microplate reader. The survival rate of cells was calculated according to the following formula: Survival rate of cells (%)=(absorbance value of a test group/absorbance value of a control group)×100%
In addition, bEnd.3 cells and U87 MG glioma cells were used as model cells to evaluate the cytotoxicity of Axitinib and an Axitinib analog of phosphatidylinositol kinase (PI3K) inhibitor LY294002 with the tetrazolium blue colorimetric method. […] Absorbance at 570 nm was measured with a microplate reader.

[1] = test system: pathological blood-brain barrier (bEnd.3 cells co-incubated with U87 MG glioma cells); test: Pathological blood-brain barrier Transwell model, FITC-dextran transmembrane transport; assay type: cell-based; conditions: 10 μM, 24 hours, then FITC-dextran 10 kDa for 4 hours; FIG. 11
Description: A Transwell model of co-incubation of brain microvascular endothelial cells bEnd.3 and glioma cells U87 MG simulates a pathological blood-brain barrier. Axitinib (10 μM), an Axitinib analog of phosphatidylinositol kinase (PI3K) inhibitor LY294002 (10 μM), protein kinase B (AKT) agonist SC79 (10 μM) were added into the Transwell chamber. After 24 hours, the Transwell chamber and the outer chamber were cleaned with PBS, and a solution of FITC-dextran in HBSS was added to the Transwell chamber, and was left for 4 hours. […] A physiological blood-brain barrier simulated by a Transwell model of brain microvascular endothelial cell bEnd.3 was used as a positive control (n=3).
U87 MG glioma cells were used as brain tumor model cells. 1.5 mL suspension of well-grown U87 MG cell suspension was inoculated in a 12-well plate at a cell density of 2×10^5/well. Incubation was continued at 37° C. and 5% CO2 until the cells adhere. […]

[2] = test system: pathological blood-brain barrier (bEnd.3 cells with tumor cell culture); test: Tumor cell culture co-incubated with bEnd.3 cells (U87MG removed), FITC-dextran transmembrane transport; assay type: cell-based; conditions: tumor cell culture kept, 10 μM, 24 hours, FIG. 16
Description: FIG. 16: Co-incubation of a tumor cell culture and bEnd.3 cells in vitro, and FITC-dextran transmembrane transport efficiency. A Transwell model of co-incubation of brain microvascular endothelial cells bEnd.3 and glioma cells U87 MG simulates a pathological blood-brain barrier. Once a pathological blood-brain barrier model was formed, U87MG glioma cells in the outer chamber of Transwell were removed, while the tumor cell cultures were remained. Axitinib (10 μM) and an Axitinib analog of phosphatidylinositol kinase (PI3K) inhibitor LY294002 (10 μM) were added to the Transwell chamber. After 24 hours, the Transwell chamber and the outer chamber were cleaned with PBS, and a FITC-dextran solution in HBSS was added to the Transwell chamber, and was allowed to act for 4 hours. The result as shown in the figure was the FITC-dextran concentration of the Transwell outer chamber as detected by a fluorescence spectrophotometer. […]
The physiological blood-brain barrier and the pathological blood-brain barrier as constructed in Method 1 and Method 2 in the Example 1 were used as models, respectively. […] After the cells were incubated at 37° C. in the dark for 4 hours, concentration of FITC-dextran transferred to the outer chamber via the Transwell chamber was detected with a fluorescence spectrophotometer.

U87-luci glioma = test: Glioma growth (bioluminescent imaging) and life cycle, in situ glioma model; assay type: in vivo, BABL/c nude mice; conditions: 10 mg/kg tail vein
Description: Administration was performed for 7 consecutive days. Growth of glioma was monitored by a bioluminescent imaging technology. […] A physiological saline group was used as control.
Male BABL/c nude mice (20±2 g) were used as the model animals. U87-luci glioma cells expressing luciferase were inoculated in the striatum area of nude mice at a concentration of 5×10^5 cells/5 μL by means of a brain stereotaxic instrument (inoculation coordinates, 0.8 mm on the anterior side of bregma, 2 mm on the right side, and 3 mm in depth), to construct an in situ glioma model. […] Administration was performed for 7 consecutive days. Growth of glioma was monitored by a bioluminescent imaging technology.

Claudin-5/Occludin = test: Pathological blood-brain barrier Transwell model, Claudin-5/Occludin immunofluorescence; assay type: cell-based; conditions: 10 μM, 24 hours; FIG. 12
Description: A Transwell model of co-incubation of brain microvascular endothelial cells bEnd.3 and glioma cells U87 MG simulates a pathological blood-brain barrier. Axitinib (10 μM), an Axitinib analog of phosphatidylinositol kinase (PI3K) inhibitor LY294002 (10 μM), protein kinase B (AKT) agonist SC79 (10 μM) were added into the Transwell chamber. After 24 hours, immunofluorescent stain was performed on bEnd.3 cells on the Transwell chamber membrane. A physiological blood-brain barrier simulated by a Transwell model of brain microvascular endothelial cell bEnd.3 was used as a positive control.
U87 MG glioma cells were used as brain tumor model cells. 1.5 mL suspension of well-grown U87 MG cell suspension was inoculated in a 12-well plate at a cell density of 2×10^5/well. Incubation was continued at 37° C. and 5% CO2 until the cells adhere. Then, the physiological blood-brain barrier as constructed by Method 1 in the Example 1, i.e., the Transwell chamber with bEnd.3 cells grown, was transferred to the 12-well plate with U87 MG cells grown. Co-culture was further continued for 24 hours to obtain a cell model of pathological blood-brain barrier.

[3] = test system: pathological blood-brain barrier; test: Evans blue permeation into the brain after treatment, model of Parkinson's disease; assay type: in vivo, C57/BL6 mice

CNC(=O)c1ccccc1Sc1ccc2c(/C=C/c3ccccn3)n[nH]c2c1 [Axitinib, N-methyl-2-((3-((1E)-2-(pyridine-2-yl)ethenyl)-1H-indazol-6-yl)sulfanyl)benzamide]
Cytotoxicity (bEnd.3 cells): do not produce significant cytotoxicity
FITC-dextran transmembrane transport (blood-brain barrier permeability) [1]: reduce blood-brain barrier permeability
FITC-dextran transmembrane transport (blood-brain barrier permeability) [2]: blood-brain barrier permeability is reduced
Growth of glioma in situ (U87-luci glioma; 7 consecutive days from Day 4, vs saline control, FIG. 20): significantly inhibited
Life cycle of the animal (U87-luci glioma; 7 consecutive days, FIG. 21): significantly prolonged
Expression of tight junction protein Claudin-5/Occludin (Claudin-5/Occludin): reduce the degree to which pathological blood-brain barrier tight junction protein of Claudin-5/Occludin is down-regulated
Amount of Evans blue permeated into the brain, compared with the levodopa treatment group ([3]; Axitinib 10 mg/kg 7 days vs levodopa 20 mg/kg 10 days): significantly lower than that of the levodopa treatment group
Amount of Evans blue permeated into the brain ([3]; Axitinib 10 mg/kg tail vein 7 days, levodopa 20 mg/kg intraperitoneally 10 days, vs Parkinson's control, FIGS. 26 and 27): reduced to varied degrees
